In brackets after ≈: the same amount, converted by molar mass. Like-named read-outs stand apart in the source and are kept apart here.
How the values were obtained:
[1] = system: Schistosoma mansoni 21-day-old schistosomules; assay: Effect on 21-day-old schistosomules in infected mice; assay type: in vivo; conditions: for % reduction of schistosomule growth at day 21 after per os application of 200 mg/kg, FWR (%): female worm reduction rate
Procedure: Mice were infected with 100 Schistosoma mansoni cercariae on day 21 post-treatment. Each group was treated per os with trioxolanes at a single dose of 200 mg/kg. […] All groups were killed 4 weeks after treatment and the liver and intestine were removed and separated. The liver and intestine were compressed and alive male and female worms could be seen and counted. The effect of the compounds was evaluated by mean total and female worm burden.

[2] = system: Schistosoma mansoni adult worms (49-day-old); assay: Effect on adult schistosomes (49-day-old) in infected mice; assay type: in vivo; conditions: for % reduction of adult worms growth at day 49 after per os application of 400 mg/kg, TWR (%) / Adult worms day 49, per os 400 mg/kg, DEAD WORM (%): single 400 mg/kg per os
Procedure: Mice were infected with 100 Schistosoma mansoni cercariae on day 49 post-treatment. Each group was treated per os with OZ compounds at single doses of 200, 400, and 600 mg/kg. Untreated mice served as the control. All groups were killed 4 weeks after treatment and the liver and intestine were removed and separated. The liver and intestine were compressed and alive male and female worms could be seen and counted.

[3] = system: ANKA strain of P. berghei; assay: Single dose STI in vivo screen in infected mice; set-up: species or system Plasmodium berghei; conditions: for Survival (days) 10 mg/kg po: single 10 mg/kg po in 3% ethanol and 7% Tween 80; for Survival (days) 10 mg/kg po / Survival (days) 10 mg/kg SSV po / Survival (days) 10 mg/kg sc: untreated 6-7 days; for Activity (%) 10 mg/kg po: single 10 mg/kg po in 3% ethanol and 7% Tween 80 on day 1 post-infection; for Activity (%) 10 mg/kg po / Activity (%) 10 mg/kg SSV po / Activity (%) 10 mg/kg sc: percent reduction in parasitemia on day 3; for Survival (days) 10 mg/kg SSV po: single 10 mg/kg po in SSV; for Activity (%) 10 mg/kg SSV po: single 10 mg/kg po in standard suspending vehicle (SSV) on day 1 post-infection; for Survival (days) 10 mg/kg sc: single 10 mg/kg sc in 3% ethanol and 7% Tween 80; for Activity (%) 10 mg/kg sc: single 10 mg/kg sc in 3% ethanol and 7% Tween 80 on day 1 post-infection
[4] = system: chloroquine-sensitive NF54 strain of P. falciparum; assay: In vitro antimalarial semiautomated microdilution assay ([3H]-hypoxanthine incorporation), NF54 strain; assay type: cell-based, Plasmodium falciparum; conditions: for IC50: Plasmodium falciparum
In short: (§1)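 Logit regression analysis yields the fifty percent inhibitory concentration. Compounds are tested by semiautomated microdilution on intraerythrocytic parasites drawn from asynchronous stock cultures, measuring [3H]-hypoxanthine incorporation.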

[5] = system: chloroquine-resistant K1 strain of P. falciparum; assay: In vitro antimalarial semiautomated microdilution assay ([3H]-hypoxanthine incorporation), K1 strain; assay type: cell-based, Plasmodium falciparum; conditions: for IC50: Plasmodium falciparum
In short: as §1

[6] = single 200 mg/kg per os, 21-day-old schistosomules
[7] = 49-day-old adults, total worm reduction rate
[8] = percentage of dead worm in the liver
[9] = single 200 mg/kg per os, 21-day-old schistosomules, total worm reduction rate
[10] = chloroquine-sensitive NF54 strain, 72 h incubation, read-out: IC50 (ng/ml) NF54
[11] = chloroquine-resistant K1 strain, 72 h incubation, read-out: IC50 (ng/ml) K1
[12] = NF54, 72 h, read-out: IC50 (ng/ml) NF54, chloroquine-sensitive NF54 strain, 72 h incubation
[13] = K1, 72 h, read-out: IC50 (ng/ml) K1, chloroquine-resistant K1 strain, 72 h incubation

Row | SMILES | % reduction of schistosomule growth at day 21 after per os application of 200 mg/kg, FWR (%) [1, 6] | % reduction of adult worms growth at day 49 after per os application of 400 mg/kg, TWR (%) [2, 7] | Adult worms day 49, per os 400 mg/kg, DEAD WORM (%) [2, 8] | % reduction of schistosomule growth at day 21 after per os application of 200 mg/kg, TWR (%) [1, 9] | Survival (days) 10 mg/kg po [3] | Activity (%) 10 mg/kg po [3] | Survival (days) 10 mg/kg SSV po [3] | Activity (%) 10 mg/kg SSV po [3] | Survival (days) 10 mg/kg sc [3] | Activity (%) 10 mg/kg sc [3] | also measured
1 | C1CCC2(CC1)OOC1(O2)C2CC3CC(C2)CC1C3 (stereo not shown) [OZ03] | 74% | 29% | 8% | – | – | – | – | – | – | – | % reduction of schistosomule growth at day 21 after per os application of 200 mg/kg, TWR (%) ([1]; po, 200 mg/kg, 504 h): 74%
2 | C1C2CC3CC1CC(C2)C31OOC2(O1)C1CC3CC(C1)CC2C3 (stereo not shown) [OZ04] | 7% | 0/0% | 0/0% | 7% | – | – | – | – | – | – | –
3 | C1COC2(CCC3(CC2)OOC2(O3)C3CC4CC(C3)CC2C4)O1 (stereo not shown) [OZ10] | 73% | 28% | 13% | 66% | – | – | – | – | – | – | % reduction of adult worms growth at day 49 after per os application of 600 mg/kg, TWR (%) ([2]; single 600 mg/kg per os, 49-day-old adults, total worm reduction rate): 21%; Adult worms day 49, per os 600 mg/kg, DEAD WORM (%) ([2]; single 600 mg/kg per os, percentage of dead worm in the liver): 23%
4 | O=C1CC2CC3(CC2C1)OOC1(O3)C2CC3CC(C2)CC1C3 (stereo not shown) [OZ12] | 79% | 14% | 0% | 78% | – | – | – | – | – | – | –
5 | O=C1C2C3CC4C5C3C1C5C1(OOC3(O1)C1CC5CC(C1)CC3C5)C42 (stereo not shown) [OZ14] | 0% | 0/0% | 0/0% | 7% | – | – | – | – | – | – | –
6 | CON=C1CCC2(CC1)OOC1(O2)C2CC3CC(C2)CC1C3 (stereo not shown) [OZ15] | 70% | 0% | 10% | 63% | – | – | – | – | – | – | –
7 | O=C1CCC2(CCO1)OOC1(O2)C2CC3CC(C2)CC1C3 (stereo not shown) [OZ17] | 7% | 0% | 5% | – | – | – | – | – | – | – | % reduction of schistosomule growth at day 21 after per os application of 200 mg/kg, TWR (%) ([1]; po, 200 mg/kg, 504 h): 23%
8 | c1cn(C[C@H]2CC[C@]3(CC2)OOC2(O3)C3CC4CC(C3)CC2C4)cn1 (stereo partly shown) [OZ145] | 83% | – | – | – | – | – | – | – | – | – | % reduction of schistosomule growth at day 21 after per os application of 200 mg/kg, TWR (%) ([1]; po, 200 mg/kg, 504 h): 80%; Survival (days) 10 mg/kg po ([3]; 10 mg/kg): 8.3 days; Activity (%) 10 mg/kg po ([3]; 10 mg/kg): 99.82%; Survival (days) 10 mg/kg SSV po ([3]; 10 mg/kg): 10.7 days; Activity (%) 10 mg/kg SSV po ([3]; 10 mg/kg): 99.21%; Survival (days) 10 mg/kg sc ([3]; 10 mg/kg): 10.7 days; Activity (%) 10 mg/kg sc ([3]; 10 mg/kg): 99.87%; IC50 [4, 10]: 0.76 ng/mL (≈ 2.21 nM); IC50 [5, 11]: 0.5 ng/mL (≈ 1.45 nM)
9 | O=[N+]([O-])c1ccc(N2CCC3(CC2)OOC2(O3)C3CC4CC(C3)CC2C4)cc1 (stereo not shown) [OZ151, Adamantane-2-spiro-3′-8′-(4′-nitrophenyl)-1′,2′,4′-trioxa-8′-azaspiro[4.5]decane] | 19% | – | – | – | 7.3 days | 71% | 7.3 days | 71% | 11.0 days | 99.63% | % reduction of schistosomule growth at day 21 after per os application of 200 mg/kg, TWR (%) ([1]; po, 200 mg/kg, 504 h): 19%; IC50 [4, 10]: 4 ng/mL (≈ 10.4 nM); IC50 [5, 11]: 3.8 ng/mL (≈ 9.83 nM)
10 | OC12CC3CC(C1)C1(OOC4(CCC5(CC4)OCCO5)O1)C(C3)C2 (stereo not shown) [OZ152, 5-Hydroxyadamantane-2-spiro-3′-1′,2′,4′,9′,12′-pentaoxadispiro[4.2.4.2]tetradecane] | 11% | – | – | 19% | 6.3 days | – | – | – | – | – | Activity (%) 10 mg/kg po ([3]; 10 mg/kg): 0%; Survival (days) 10 mg/kg SSV po ([3]; 10 mg/kg): 6.7 days; Activity (%) 10 mg/kg SSV po ([3]; 10 mg/kg): 12%; Survival (days) 10 mg/kg sc ([3]; 10 mg/kg): 6.7 days; Activity (%) 10 mg/kg sc ([3]; 10 mg/kg): 22%; IC50 (ng/ml) NF54 ([4]; chloroquine-sensitive NF54 strain, 72 h incubation): 7.2 ng/mL (≈ 21.3 nM); IC50 (ng/ml) K1 ([5]; chloroquine-resistant K1 strain, 72 h incubation): 3.2 ng/mL (≈ 9.46 nM)
11 | CN1CCN(C(=O)N2CCC3(CC2)OOC2(O3)C3CC4CC(C3)CC2C4)CC1 (stereo not shown) [OZ157, Adamantane-2-spiro-3′-8′-[(4′-methyl-1′-piperazinyl)carbonyl]-1′,2′,4′-trioxa-8′-azaspiro[4.5]decane] | 68% | – | – | 65% | 7.3 days | 90% | 8.3 days | 80% | 8.3 days | 97% | IC50 [4, 12]: 0.22 ng/mL (≈ 0.562 nM); IC50 [5, 13]: 0.2 ng/mL (≈ 0.511 nM)
12 | C1CCN(C2CCC3(CC2)OOC2(O3)C3CC4CC(C3)CC2C4)CC1 (stereo not shown) [OZ159] | 19% | – | – | 19% | 6.7 days | 34% | 6.7 days | 31% | 9.0 days | 98% | IC50 [4, 12]: 0.94 ng/mL (≈ 2.71 nM); IC50 [5, 13]: 0.7 ng/mL (≈ 2.01 nM)
13 | c1ccc(CNC2CCC3(CC2)OOC2(O3)C3CC4CC(C3)CC2C4)cc1 (stereo not shown) [OZ160] | 0% | – | – | 0% | 6.3 days | 45% | 6.7 days | 43% | 12.0 days | 99.94% | IC50 [4, 12]: 0.87 ng/mL (≈ 2.35 nM); IC50 [5, 13]: 0.7 ng/mL (≈ 1.89 nM)
14 | C1C2CC3CC1CC(C2)C31OOC2(CCC3(CC2)OOC2(O3)C3CC4CC(C3)CC2C4)O1 (stereo not shown) [OZ169, Adamantane-2-spiro-3′-1′,2′,4′,9′,10′,12′-hexaoxadispiro[4.2.4.2]tetradecane-11′-spiro-2″-adamantane] | 0% | – | – | 0% | 7.7 days | 98% | 6.7 days | 22% | 9.0 days | 99.76% | IC50 [4, 12]: > 10 ng/mL; IC50 [5, 13]: 15 ng/mL (≈ 33.7 nM)

From patent US6825230B2, “Spiro and dispiro 1,2,4-trixolane antimalarials” (Medicines for Malaria Venture MMV, priority 2002, dated 2004)
